System: spontaneously hypertensive rats
Assay: antihypertensive activity in the spontaneously hypertensive rat model
Format: in vivo
Details: oral administration at 20 mg/kg
Description: The antihypertensive activity of certain compounds of the present invention was determined using the spontaneously hypertensive rat model. The details of this in vivo test are found in Roesler, J. M., et al., J. Pharmacol. Exp. Ther., 236:1-7 (1986).

With “N-[(7-Chloro-3,4,5,6-tetrahydro-4-methylthieno[4,3,2-ef][3]benzazepin-2-yl)methyl]2-methylpropanesulfonamide [Example 7]” the arterial blood pressure was “dose related reduction in arterial blood pressure”.

From patent publication US4981848A, “Alpha-adrenergic receptor antagonists” (SmithKline Beecham Corporation, priority 1989, dated 1991)
